From patent publication US10908147B2, “Methods of identifying modulators of olfactory receptors” (priority 2013, dated 2021)
“Also recorded” adds a separate entry of the source. Like-named read-outs stand apart in the source and are kept apart here.

Tests used:
[1] = biological target: T1, olfactory receptor OR240 (also OR7D4) (Homo sapiens, UniProt Q8NG98); experiment: Calcium imaging of HBO cells transiently transfected with OR7D4; type: cell-based; details: HBO cells transfected with OR7D4/OR240 plus chaperone DNA (RTP1S and M3); 30 or 100 micromolar
T1 construct: expressed in transfected cells; host or cells: cultured human taste papillae (HBO) cells, Lipofectamine 2000, transient
T1 sequence (Q8NG98 1-312): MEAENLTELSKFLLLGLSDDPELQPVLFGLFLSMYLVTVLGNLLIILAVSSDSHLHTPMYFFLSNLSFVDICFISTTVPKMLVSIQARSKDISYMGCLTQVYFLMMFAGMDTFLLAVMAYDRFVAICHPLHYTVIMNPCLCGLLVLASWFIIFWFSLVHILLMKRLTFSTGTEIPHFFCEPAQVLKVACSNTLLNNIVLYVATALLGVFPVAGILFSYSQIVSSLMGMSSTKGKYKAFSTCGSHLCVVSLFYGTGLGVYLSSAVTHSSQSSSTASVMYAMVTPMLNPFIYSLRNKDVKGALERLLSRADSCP

[2] = system: olfactory receptor ORS6 (also Olfr544); experiment: Calcium imaging of HBO cells transiently transfected with ORS6; type: cell-based, mouse; details: HBO cells transfected with ORS6 plus chaperone DNA (RTP1S and M3); 30 or 100 micromolar
[3] = system: cultured fungiform taste papillae (HBO) cells obtained from human tongue; experiment: Calcium imaging of cultured human fungiform taste papillae (HBO) cells; type: cell-based; details: fura-2 calcium imaging, odorants at optimal concentration 100 uM
Procedure: The human fungiform papillae cells were cultured according to published protocols (Ozdener et al., Chem Senses. 2006 March; 31(3): 279-90; Ozdener et al., In Vitro Cellular & Developmental Biology—Animal. September 2011, 47(8): 513-14; each of which is incorporated herein by reference). Briefly, human fungiform taste papillae were removed and immediately placed into an isolation solution [26 mM NaHCO3, 2.5 mM NaH2PO4, 20 mM glucose, 65 mM NaCl, 20 mM KCl, and 1 mM ethylenediaminetetraacetic acid (EDTA)] followed by enzymatic digestion with pronase E and elastase. Digested fungiform papillae were then gently minced with a surgical razor and seeded on collagen type-1 coated coverslips and incubated at 36° C. in a humidified environment containing 5% CO2. The human fungiform taste papillae were cultured in Iscove's Modified Dulbecco's medium containing 10% fetal bovine serum, 1:5 ratio of MCDB 153, and a triple cocktail of antibiotics (100 U/mL/100 μg/mL, penicillin/streptomycin, and 0.5 μg/mL fungizone). Human fungiform taste papillae cells have been maintained in culture for a period of more than 1 year without loss of viability and with retention of the molecular and biochemical properties of acutely isolated taste cells.
(§1) Changes in intracellular calcium levels in response to stimuli were measured. Cultured human fungiform and mice taste papillae cells were seeded on 15 mm coverslips. Cells were loaded with […] Fura-2 AM (Molecular Probes Inc.) in 10 mg/mL Pluronic® F127 (Molecular Probes Inc.) in modified Ringer solution for 1 hour at 36° C. Individual odors, bitter mixture [phenylthiocarbamide (PTC, 2 mM) and Denatonium (2 mM), Salicin (5 mM)]; and Mix A [cAMP-producing odors in rat biochemical assays (Breer and Boekhoff, 1991, Chem. Senses, 16(1): 19-29, and Restrepo et al., 1993, J. Gen. Physiol., 102:907-924); both of which are incorporated herein by reference] (100 mM): hedione, geraniol, phenylethyl alcohol, citralva, citronellal, and eugenol,]; and Mix B [IP3-producing odors in rat biochemical assays (Breer and Boekhoff, 1991 and Restrepo et al 1993)] (100 mM): lyral, lilial, triethylamine, ethyl vanillin, isovaleric acid, and phenylethyl amine]) was diluted in Ringer, which was prepared with pH adjusted to 7.2 and osmolality adjusted to 300 mmol/kg. A coverslip was placed into a p4 chamber system with the delivery and waste pipes attached to the chamber. This allowed for a stable and constant flow of liquid in and out of the chamber. The cells were visualized with an inverted florescence microscope using an excitation wavelength of 380 nm. Stimulus selection and delivery, focusing, and image acquisition were done using PTI software. Following image acquisition, regions of interest (ROIs) on the cells along with a background control region were selected to be measured for fluorescence ratios and intensity values. Cultured taste papillae cells were first washed for 1-3 min with Ringer, and then stimuli delivery was initiated. Each stimulus was delivered for 30 sec-1 min followed by an approximately 2 min wash out period with Ringer. Ratio data for the cells were subsequently analyzed on Excel to determine which cells had responded with a significant change in intracellular calcium. After calcium imaging, coverslips were fixed with 4% PFA for 10 min and washed 3× with PBS.

[4] = system: cultured taste papillae cells obtained from mOR-M71-GFP ("M71") mice; experiment: Calcium imaging of cultured taste papillae cells from mOR-M71-GFP mice; type: cell-based; details: fura-2 calcium imaging; odorants at optimal concentration 100 uM; mOR-M71-GFP mouse taste cell cultures
Procedure: (§2) Circumvallate and foliate papillae obtained from wild (m129), I7, M71 and Eugenol transgenic mice were isolated according to previously published procedure (Ozdener et al., 2006, cited above). Briefly, mouse taste papillae were removed by injecting the mixture of enzyme (pronase, 1 mg/ml Sigma and elastase 1 mg/ml Sigma) and immediately placed into an isolation solution followed by enzymatic digestion. Digested taste papillae tissue were then gently minced with a surgical razor and seeded on collagen type-1 coated coverslips and incubated at 36° C. in a humidified environment containing 5% CO2.
(§3) Changes in intracellular calcium levels in response to stimuli were measured. Cultured human fungiform and mice taste papillae cells were seeded on 15 mm coverslips. Cells were loaded with […] Fura-2 AM (Molecular Probes Inc.) in 10 mg/mL Pluronic® F127 (Molecular Probes Inc.) in modified Ringer solution for 1 hour at 36° C. […] Following image acquisition, regions of interest (ROIs) on the cells along with a background control region were selected to be measured for fluorescence ratios and intensity values. […] Ratio data for the cells were subsequently analyzed on Excel to determine which cells had responded with a significant change in intracellular calcium. […]

[5] = system: cultured taste papillae cells obtained from M129 mice; experiment: Calcium imaging of cultured wild mouse (m129) taste papillae cells; type: cell-based; details: fura-2 calcium imaging; odorants at optimal concentration 100 uM; wild (m129) mouse taste cell cultures
Procedure: as §2
as §1, with “This allowed for a stable and constant flow of liquid in and out of the chamber. The cells were visualized with an inverted florescence microscope using an excitation wavelength of 380 nm. Stimulus selection and delivery, focusing, and image acquisition were done using PTI software.” left out, “Cultured taste papillae cells were first washed for 1-3 min with Ringer, and then stimuli delivery was initiated. Each stimulus was delivered for 30 sec-1 min followed by an approximately 2 min wash out period with Ringer.” left out, “After calcium imaging, coverslips were fixed with 4% PFA for 10 min and washed 3× with PBS.” left out

[6] = system: immortalized human fungiform taste papillae (Ulduz) cells; experiment: Odor response of immortalized human fungiform taste papillae (Ulduz) cells; type: cell-based
Procedure: as §1
In a similar manner, immortalized human fungiform taste papillae (Ulduz) cells, responded to receptor specific odors, heptaldehyde, acetophenone, methyl cinnamon, eugenol and lyral.

[7] = system: cultured taste papillae cells obtained from mOR-EG-GFP ("mEUG") mice; experiment: Calcium imaging of cultured taste papillae cells from mOR-EG-GFP mice; type: cell-based; details: fura-2 calcium imaging; odorants at optimal concentration 100 uM; mOR-EG-GFP mouse taste cell cultures
Procedure: as §2, §3

Compound | response to stimulus (change in intracellular calcium [Ca2+]i) [3] | response to stimulus (change in intracellular calcium) [5] | response to receptor specific odor [6] | other results
C[C@@]12CCC[C@H]1[C@@H]1CC[C@H]3CC(=O)CC[C@]3(C)[C@H]1CC2 [Androstanone] |  |  |  | calcium response to receptor specific odor [1]: response occurred
O=C(O)CCCCCCCC(=O)O [Nonanedionic acid] |  |  |  | calcium response to receptor specific odor [2]: response occurred
CC(=O)c1ccccc1 [acetophenone] | sensitive | responded; also recorded: sensitive | respond | response to stimulus (change in intracellular calcium) [4]: exhibited a response; also recorded: respond; also recorded: responsive
O=Cc1ccccc1 [benzaldehyde] |  | responded; also recorded: sensitive |  | response to stimulus (change in intracellular calcium) [4]: respond
O=c1ccc2ccccc2o1 [coumarin] | sensitive |  |  | 
C=CCc1ccc(O)c(OC)c1 [eugenol] | sensitive | sensitive | respond | response to stimulus (change in intracellular calcium) [7]: respond; also recorded: responsive
CCCCCCC=O [heptanal] | sensitive |  |  | response to receptor specific odor ([6]; listed as heptaldehyde): respond
CCCCCC(=O)O [hexanoic acid] | sensitive |  |  | 
CC(C)(O)CCCC1=CCC(C=O)CC1 (stereo not shown) [lyral] | sensitive |  | respond | 
COC(=O)/C=C/c1ccccc1 [methyl cinnamon] |  |  | respond | 
